Here are results for five compounds from publication PMC6259646, “Role of Intestinal Hydrolase in the Absorption of Prenylated Flavonoids Present in Yinyanghuo” (Molecules, 2011).

One series relates to rat intestine. In words: four-site single-pass perfused rat intestinal model: effective permeability and metabolite formation. It counts as in vivo. The settings on record: for metabolites detected in the perfusate: HPLC; for identity of intestinal metabolite: rat intestinal perfusate, LC/MS/MS, loss of saccharide group at C7. From the text: Male Sprague-Dawley rats weighing between 250 and 300 g were obtained from the SLEK Lab Animal Center of Shanghai (Shanghai, China). The rats were fed with water and a standard diet. The rats were fasted overnight before the day of the experiment.
The surgical procedures were approved by the Animal Ethics Committee of Jiangsu Provincial Academy of Chinese Medicine. Anesthesia was induced by an i.m. injection of urethane (0.5 g/mL). After the rat was anesthetized, it was put over a heating blanket and under a heating lamp to keep its normal body temperature. We then cannulated four segments of the intestine, each with two cannulae. After each cannula was inserted, it was secured with a sterilized black suture before the next cannula was inserted and secured. First, the duodenum was located as the intestinal segment immediately adjacent to the stomach, and two cannulae at 10 cm apart were inserted into two ends of the duodenum and secured with suture. Next, the jejunum was located below the duodenum, and the first cannula was inserted at 4 cm below the duodenal outlet cannula, whereas the second cannula was inserted at 10 cm below the first jejunal cannula. Then, the terminal ileum was located by identifying the ileocecal junction of the rat intestine. The outlet cannula was inserted into the ileum at 2 cm above the junction, and the inlet cannula was inserted 10 cm above the outlet cannula. Lastly, the colon inlet cannula was inserted into the colon at 2 cm below the junction, and the outlet cannula was inserted through the anus. After cannulation, the small intestinal segments were placed carefully into the abdominal cavity, avoiding crimping or kinking of the segments. The incision was then covered by a normal saline-wetted paper towel. A piece of plastic wrap was put on the towel to keep the intestinal segments moist. Additionally, caution was also exercised to keep the inlet and outlet cannulate at the same height to avoid gravitational flow. To keep the temperature of the perfusate constant, the inlet cannulate was kept warm by a 37°C circulating water bath.
This is a single-pass perfusion method. Four segments of the intestine (duodenum, upper jejunum, terminal ileum, and colon) were perfused simultaneously with a perfusate containing the compound of interest using an infusion pump (Harvard Apparatus, Cambridge, MA, USA) at a flow rate of 0.2 mL/min. After a 30-min washout period, which is usually sufficient to achieve the steady-state absorption, four samples were collected from the outlet cannulae every 30 min afterward. After perfusion, the length of the intestine was measured as described previously The outlet concentrations of the test compounds in the luminal perfusate were determined by HPLC or LC/MS/MS.
The samples were separated on a Zorbax SB-C18 column (250 mm × 4.6 mm, 5 μm, Agilent). The mobile phase consisted of acetonitrile (A) and water containing 0.1% acetic acid (B). […] For MS analysis, the electro spray ionization (ESI) source was operated in the positive ion mode.
In the perfused rat intestinal model, Peff^* (effective permeability) is a representation of the intestinal membrane permeability. Peff^* of the compounds are calculated using the following equations: Peff^∗=1−Cm/Co/4Gz where Co and Cm are inlet and outlet concentrations, respectively; Gz, or Graetz number ( Gz=πDL/2Q ), is a scaling factor that incorporates flow rate (Q), intestinal length (L), and diffusion coefficients (D) to make the permeability dimensionless. Cm was adjusted for water flux, data points were discarded if the water flux exceeded 0.5%/cm of intestine.

Series [1] has as its system lactase phlorizin hydrolase. In words: co-perfusion with LPH inhibitor gluconolactone in perfused rat intestinal model: inhibition of hydrolysis. The class given is in vivo. The settings on record: 10 μM flavonoid co-perfused with gluconolactone (40μM). As for the experimental part: This is a single-pass perfusion method. […] After a 30-min washout period, which is usually sufficient to achieve the steady-state absorption, four samples were collected from the outlet cannulae every 30 min afterward. After perfusion, the length of the intestine was measured as described previously The outlet concentrations of the test compounds in the luminal perfusate were determined by HPLC or LC/MS/MS. […] The total gluconolactone concentration was 40μM. After perfusion, perfusates were collected and determined by HPLC. […] The accuracy and precision were greater than 98%.

`COc1ccc(-c2oc3c(CC=C(C)C)c(OC4OC(CO)C(O)C(O)C4O)cc(O)c3c(=O)c2OC2OC(C)C(O)C(O)C2OC2OC(CO)C(O)C(O)C2O)cc1` (stereo not shown) [epimedin A]: in the series on rat intestine, the “metabolites detected in the perfusate” value is reported as “one metabolite” and the “identity of intestinal metabolite” value is recorded as “sagittatoside A”. In series [1], the “hydrolysis inhibition rate, colon” value is listed as 14%; the “hydrolysis inhibition rate, duodenum” value was 55%; the “hydrolysis inhibition rate, ileum” value came to 21%; the “hydrolysis inhibition rate, jejunum” value was determined as 26%.

As to `COc1ccc(-c2oc3c(CC=C(C)C)c(O)cc(O)c3c(=O)c2O[C@@H]2O[C@@H](C)[C@H](O)[C@@H](O)[C@H]2O)cc1` [baohuoside I], the “metabolites detected in the perfusate” value in the series with rat intestine is “no metabolites were detected”.

As for `COc1ccc(-c2oc3c(CC=C(C)C)c(O[C@@H]4O[C@H](CO)[C@@H](O)[C@H](O)[C@H]4O)cc(O)c3c(=O)c2O[C@@H]2O[C@@H](C)[C@H](O)[C@@H](O)[C@H]2O)cc1` [icariin], in the series with rat intestine, the “metabolites detected in the perfusate” value is on record as “two metabolites” and the “identity of intestinal metabolite” value is reported as “baohuoside I”. In addition, in series [1], the “hydrolysis inhibition rate, colon” value is 46%; the “hydrolysis inhibition rate, duodenum” value is reported as 62%; the “hydrolysis inhibition rate, ileum” value turned out to be 40%; the “hydrolysis inhibition rate, jejunum” value is 50%.

Regarding `COc1ccc(-c2oc3c(CC=C(C)C)c(OC4OC(CO)C(O)C(O)C4O)cc(O)c3c(=O)c2OC2OC(C)C(O)C(O)C2OC2OC(C)C(O)C(O)C2O)cc1` (stereo not shown) [epimedin C], in the series with rat intestine, the “metabolites detected in the perfusate” value was “one metabolite” and the “identity of intestinal metabolite” value is on record as 2″-O-rhamnosylicariside II. In series [1], the “hydrolysis inhibition rate, colon” value was 35%; the “hydrolysis inhibition rate, duodenum” value came to 42%; the “hydrolysis inhibition rate, ileum” value came out at 52%; the “hydrolysis inhibition rate, jejunum” value came to 40%.

On to `COc1ccc(-c2oc3c(CC=C(C)C)c(OC4OC(CO)C(O)C(O)C4O)cc(O)c3c(=O)c2OC2OC(C)C(O)C(O)C2OC2OCC(O)C(O)C2O)cc1` (stereo not shown) [epimedin B], for which, in the series on rat intestine, the “metabolites detected in the perfusate” value is “one metabolite” and the “identity of intestinal metabolite” value is “sagittatoside B”. In addition, in series [1], the “hydrolysis inhibition rate, colon” value was 22%; the “hydrolysis inhibition rate, duodenum” value is 42%; the “hydrolysis inhibition rate, ileum” value stood at 74%; the “hydrolysis inhibition rate, jejunum” value came out at 40%.
